Measured values from patent US10336762B2 (priority 2017, dated 2019).
Where two headings read alike, the source gives them in different places.

Legend:
[1] = tested on: TNFα; test: cells; assay type: cell-based, human; settings: Homo sapiens, Monocyte, LPS-stimulated human monocytes, read-out: EC50 TNF
[2] = target: IRAK4 enzyme (Homo sapiens (Human), UniProt Q9NWZ3); test: biochemical; assay type: biochemical; settings: IRAK4 enzyme, 500 μM ATP
Sequence of IRAK4 enzyme (Q9NWZ3 whole entry): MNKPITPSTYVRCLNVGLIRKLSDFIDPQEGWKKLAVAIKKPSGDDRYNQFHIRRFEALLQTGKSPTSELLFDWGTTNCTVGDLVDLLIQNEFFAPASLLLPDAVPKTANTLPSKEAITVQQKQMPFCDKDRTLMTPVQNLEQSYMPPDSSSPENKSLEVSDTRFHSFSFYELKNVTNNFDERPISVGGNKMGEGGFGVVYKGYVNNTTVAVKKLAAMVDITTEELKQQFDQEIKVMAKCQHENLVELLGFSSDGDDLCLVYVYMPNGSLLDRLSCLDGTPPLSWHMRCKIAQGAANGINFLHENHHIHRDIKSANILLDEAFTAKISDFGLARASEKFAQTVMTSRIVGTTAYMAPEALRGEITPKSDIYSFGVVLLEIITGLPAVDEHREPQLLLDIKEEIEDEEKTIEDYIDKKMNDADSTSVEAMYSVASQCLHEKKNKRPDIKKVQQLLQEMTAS

Compound	EC50 ([1]; TNFα content) [nM]	IC50 ([2]; TR-FRET) [nM]	EC50 ([1]; TNFα by TR-FRET) [nM]	IC50 ([2]; TR-FRET (HTRF)) [nM]
CC(C)(O)[C@H](F)CNC(=O)c1cnc(-c2ccc3cc(C#N)cnn23)cc1Nc1ccc(-n2ccccc2=O)cc1 [Example 385, (R)-6-(3-cyanopyrrolo[1,2-b]pyridazin-7-yl)-N-(2-fluoro-3-hydroxy-3-methylbutyl)-4-((4-(2-oxopyridin-1(2H)-yl)phenyl)amino)nicotinamide]	36	< 1		
Cc1ccc(-c2cc(Nc3cc(-c4ccc5cc(C#N)cnn45)ncc3C(=O)NC[C@@H](F)C(C)(C)O)n(-c3ccccc3)n2)cc1 [Example 364, (R)-6-(3-cyanopyrrolo[1,2-b]pyridazin-7-yl)-N-(2-fluoro-3-hydroxy-3-methylbutyl)-4-((1-phenyl-3-(p-tolyl)-1H-pyrazol-5-yl)amino)nicotinamide]	> 10000	1000		
CCOc1nccc(Nc2cc(-c3ccc4cc(C#N)cnn34)ncc2C(=O)NC[C@@H](F)C(C)(C)O)n1 [Example 848, (R)-6-(3-cyanopyrrolo[1,2-b]pyridazin-7-yl)-4-((2-ethoxypyrimidin-4-yl)amino)-N-(2-fluoro-3-hydroxy-3-methylbutyl) nicotinamide]		2	112	
CC(C)(O)[C@H](F)CNC(=O)c1cnc(-c2ccc3cc(C#N)cnn23)cc1N[C@H]1CCCN(S(C)(=O)=O)C1 [Example 257, 6-(3-cyanopyrrolo[1,2-b]pyridazin-7-yl)-N-((R)-2-fluoro-3-hydroxy-3-methylbutyl)-4-(((S)-1-(methylsulfonyl)piperidin-3-yl)amino)nicotinamide]	129	1		
CC(C)(O)[C@H](F)CNC(=O)c1cnc(-c2ccc3cc(C#N)cnn23)cc1NC1CC(F)(F)C1 [Example 40, (R)-6-(3-cyanopyrrolo[1,2-b]pyridazin-7-yl)-4-((3,3-difluorocyclobutyl)amino)-N-(2-fluoro-3-hydroxy-3-methylbutyl)nicotinamide]	73	< 1		
N#Cc1cnn2c(-c3cc(Nc4cnn(CC(F)F)c4)c(C(=O)N[C@H]4CC[C@H](NC(=O)C5CC5)CC4)cn3)ccc2c1 [Example 519, 6-(3-cyanopyrrolo[1,2-b]pyridazin-7-yl)-N-((1r,4r)-4-(cyclopropane-carboxamido)cyclohexyl)-4-((1-(2,2-difluoroethyl)-1H-pyrazol-4-yl)amino) nicotinamide]	34			< 1
CCOC(=O)N[C@H]1CC[C@H](Nc2cc(-c3ccc4cc(C#N)cnn34)ncc2C(=O)NC[C@@H](F)C(C)(C)O)CC1 [Example 292, ethyl ((1R,4r)-4-((2-(3-cyanopyrrolo[1,2-b]pyridazin-7-yl)-5-(((R)-2-fluoro-3-hydroxy-3-methylbutyl)carbamoyl)pyridin-4-yl)amino)cyclohexyl)carbamate]	37	1		
CCCc1nccc(Nc2cc(-c3ccc4cc(C#N)cnn34)ncc2C(=O)NC[C@@H](F)C(C)(C)O)n1 [Example 843, (R)-6-(3-cyanopyrrolo[1,2-b]pyridazin-7-yl)-N-(2-fluoro-3-hydroxy-3-methylbutyl)-4-((2-propyl-pyrimidin-4-yl)amino)nicotinamide]		1	137	
CC(C)(O)[C@H](F)CNC(=O)c1cnc(-c2ccc3cc(C#N)cnn23)cc1N[C@H]1C[C@H](CNC(=O)C2(C(F)(F)F)CC2)C1 [Example 829, 6-(3-cyanopyrrolo[1,2-b]pyridazin-7-yl)-N-((R)-2-fluoro-3-hydroxy-3-methylbutyl)-4-(((1r,3R)-3-((1-(trifluoromethyl)cyclopropane-1-carboxamido)methyl)cyclobutyl)amino) nicotinamide]		< 1	23	
COC(=O)NC12CCC(Nc3cc(-c4ccc5cc(C#N)cnn45)ncc3C(=O)NC3CCC(NC(=O)N4CCOCC4)CC3)(CC1)CC2 (stereo not shown) [Example 270, methyl (4-((2-(3-cyano-pyrrolo[1,2-b]pyridazin-7-yl)-5-((4-(morpholine-4-carboxamido)cyclohexyl)carbamoyl)pyridin-4-yl)amino)bicyclo[2.2.2]octan-1-yl)carbamate]	49	1		
N#Cc1cnn2c(-c3cc(NC45CCC(O)(CC4)CC5)c(C(=O)NCC(=O)N4CC(F)C4)cn3)ccc2c1 [Example 787, 6-(3-cyanopyrrolo[1,2-b]pyridazin-7-yl)-N-(2-(3-fluoroazetidin-1-yl)-2-oxoethyl)-4-((4-hydroxybicyclo[2.2.2]octan-1-yl)amino) nicotinamide]	79			< 1
CC(C)(O)[C@H](F)CNC(=O)c1cnc(-c2ccc3cc(C#N)cnn23)cc1NC1CC2(C1)CC(F)(F)C2 [Example 749, (R)-6-(3-cyanopyrrolo[1,2-b]pyridazin-7-yl)-4-((6,6-difluorospiro[3.3]heptan-2-yl)amino)-N-(2-fluoro-3-hydroxy-3-methylbutyl) nicotinamide]	52			< 1
N#CCNC(=O)c1cnc(-c2ccc3cc(C#N)cnn23)cc1NC1CC1 [Example 461, N-(cyanomethyl)-6-(3-cyanopyrrolo[1,2-b]pyridazin-7-yl)-4-(cyclopropylamino) nicotinamide]	57			< 1
CC(C)Nc1cc(-c2ccc3cc(C#N)cnn23)ncc1C(=O)N[C@@H]1CC[C@@H](O)C1 [Example 188, 6-(3-cyanopyrrolo[1,2-b]pyridazin-7-yl)-N-((1R,3R)-3-hydroxycyclopentyl)-4-(isopropylamino) nicotinamide]	275	8		
CC(C)(O)[C@H](F)CNC(=O)c1cnc(-c2ccc3cc(C#N)cnn23)cc1Nc1ccccc1 [Example 589, (R)-6-(3-cyanopyrrolo[1,2-b]pyridazin-7-yl)-N-(2-fluoro-3-hydroxy-3-methylbutyl)-4-(phenylamino)nicotinamide]	95			< 1
CC(=O)O[C@@H]1CCC[C@H](Nc2cc(-c3ccc4cc(C#N)cnn34)ncc2C(=O)NC[C@@H](F)C(C)(C)O)C1 [Example 501, (1R,3S)-3-((2-(3-cyanopyrrolo[1,2-b]pyridazin-7-yl)-5-(((R)-2-fluoro-3-hydroxy-3-methylbutyl)carbamoyl)pyridin-4-yl)amino)cyclohexyl acetate]	63			2
CC(C)(O)[C@H](F)CNC(=O)c1cnc(-c2ccc3cc(C#N)cnn23)cc1N[C@H]1C[C@H](COC(=O)NCC(F)F)C1 [Example 736, ((1R,3r)-3-((2-(3-cyano-pyrrolo[1,2-b]pyridazin-7-yl)-5-(((R)-2-fluoro-3-hydroxy-3-methylbutyl)carbamoyl)pyridin-4-yl)amino)cyclobutyl) methyl (2,2-difluoro-ethyl)carbamate]	48			< 1
CC(C)(O)[C@H](F)CNC(=O)c1cnc(-c2ccc3cc(C#N)cnn23)cc1N[C@H]1CC[C@@H](NC(=O)C(F)(F)F)CC1 [Example 319, 6-(3-cyanopyrrolo[1,2-b]pyridazin-7-yl)-N-((R)-2-fluoro-3-hydroxy-3-methyl-butyl)-4-(((1s,4S)-4-(2,2,2-trifluoroacetamido)cyclo-hexyl)amino)nicotinamide]	2220	19		
CC(C)(O)[C@H](F)CNC(=O)c1cnc(-c2ccc3cc(C#N)cnn23)cc1N[C@H]1CCC[C@H](O)C1 [Example 63, 6-(3-cyanopyrrolo[1,2-b]pyridazin-7-yl)-N-((R)-2-fluoro-3-hydroxy-3-methylbutyl)-4-(((1S,3S)-3-hydroxycyclohexyl)amino) nicotinamide]	57	< 1		
CC(=O)NC12CC(Nc3cc(-c4ccc5cc(C#N)cnn45)ncc3C(=O)NCC(F)F)(C1)C2 [Example 278, 4-((3-acetamido-bicyclo[1.1.1]pentan-1-yl)amino)-6-(3-cyano-pyrrolo[1,2-b]pyridazin-7-yl)-N-(2,2-difluoroethyl) nicotinamide]	165	3		
CC(C)(O)[C@H](F)CNC(=O)c1cnc(-c2ccc3cc(C#N)cnn23)cc1Nc1ccc2cc[nH]c2c1 [Example 578, (R)-4-((1H-indol-6-yl)amino)-6-(3-cyano-pyrrolo[1,2-b]pyridazin-7-yl)-N-(2-fluoro-3-hydroxy-3-methylbutyl) nicotinamide]	14			2
CC(C)(O)[C@H](F)CNC(=O)c1cnc(-c2ccc3cc(C#N)cnn23)cc1Nc1ccc(N2CCNCC2)nc1 [Example 213, (R)-6-(3-cyanopyrrolo[1,2-b]pyridazin-7-yl)-N-(2-fluoro-3-hydroxy-3-methylbutyl)-4-((6-(piperazin-1-yl)pyridin-3-yl)amino) nicotinamide]	51	< 1		
CNC(=O)c1cnc(-c2ccc3cc(C#N)cnn23)cc1N[C@H]1CC[C@@H](C(=O)NC)C1 [Example 465, 6-(3-cyanopyrrolo[1,2-b]pyridazin-7-yl)-N-methyl-4-(((1S,3R)-3-(methyl-carbamoyl)cyclopentyl)amino)nicotinamide]	411			8
CC(C)(O)[C@H](F)CNC(=O)c1cnc(-c2ccc3cc(C#N)cnn23)cc1Nc1ccc(-c2ncco2)cc1 [Example 228, (R)-6-(3-cyanopyrrolo[1,2-b]pyridazin-7-yl)-N-(2-fluoro-3-hydroxy-3-methylbutyl)-4-((4-(oxazol-2-yl)phenyl)amino) nicotinamide]	114	2		
CC(C)Nc1cc(-c2ccc3cc(C#N)cnn23)ncc1C(=O)NCCC(O)C(F)(F)F (stereo not shown) [Example 712, 6-(3-cyanopyrrolo[1,2-b]pyridazin-7-yl)-4-(isopropyl-amino)-N-(4,4,4-trifluoro-3-hydroxybutyl)nicotinamide]	47			< 1
CC(C)(O)C1CCC(Nc2cc(-c3ccc4cc(C#N)cnn34)ncc2C(=O)NC[C@@H](F)C(C)(C)O)CC1 (stereo partly drawn) [Example 273, 6-(3-cyanopyrrolo[1,2-b]pyridazin-7-yl)-N-((R)-2-fluoro-3-hydroxy-3-methylbutyl)-4-(((1r,4R)-4-(2-hydroxypropan-2-yl)cyclohexyl)amino) nicotinamide]	22	2		
